Assay results as given in ChEMBL document CHEMBL3864142, “Allicin-inspired thiolated fluoroquinolones as antibacterials against ESKAPE pathogens” (2016).
Values after ≈ are worked out from the molar mass of the structure shown. Active and inactive are the calls of the source. No cut-off for these calls is given here.

Key:
Enterococcus faecium = assay: Antibacterial activity against vancomycin-resistant Enterococcus faecium ATCC 700221 at 10 uM by disc diffusion method; assay type: functional; conditions: read-out: DIZ
Staphylococcus aureus [1] = assay: Antibacterial activity against methicillin-resistant Staphylococcus aureus BAA-1747 at 10 uM by disc diffusion method; assay type: functional; conditions: read-out: DIZ
Klebsiella pneumoniae = assay: Antibacterial activity against ESBL-producer Klebsiella pneumoniae K6 700603 at 10 uM by disc diffusion method; assay type: functional; conditions: read-out: DIZ
Acinetobacter baumannii [2] = assay: Antibacterial activity against ciprofloxacin-resistant Acinetobacter baumannii BAA-1605 at 10 uM by disc diffusion method; assay type: functional; conditions: read-out: DIZ
Pseudomonas aeruginosa = assay: Antibacterial activity against Pseudomonas aeruginosa ATCC 15442 at 10 uM by disc diffusion method; assay type: functional; conditions: read-out: DIZ
Enterobacter cloacae = assay: Antibacterial activity against Enterobacter cloacae ATCC 23355 at 10 uM by disc diffusion method; assay type: functional; conditions: read-out: DIZ
Enterococcus faecalis = assay: Antibacterial activity against vancomycin-susceptible Enterococcus faecalis ATCC 29212 at 10 uM by disc diffusion method; assay type: functional; conditions: read-out: DIZ
Staphylococcus aureus [3] = assay: Antibacterial activity against methicillin-susceptible Staphylococcus aureus ATCC 29213 at 10 uM by disc diffusion method; assay type: functional; conditions: read-out: DIZ
[4] = Antibacterial activity against vancomycin-intermediate resistant Staphylococcus aureus Mu50 ATCC 700699 at 10 uM by disc diffusion method; assay type: functional, Staphylococcus aureus subsp. aureus Mu50; conditions: read-out: DIZ
Acinetobacter baumannii [5] = assay: Antibacterial activity against Acinetobacter baumannii ATCC 19606 at 10 uM by disc diffusion method; assay type: functional; conditions: read-out: DIZ
[6] = Antibacterial activity against Bacillus anthracis Sterne 34F2 at 10 uM by disc diffusion method; assay type: functional, Bacillus anthracis str. Sterne; conditions: read-out: DIZ
[7] = test system: Staphylococcus epidermidis; assay: Antibacterial activity against Staphylococcus epidermidis ATCC 14990 at 10 uM by disc diffusion method; assay type: functional; conditions: read-out: DIZ
Staphylococcus aureus [8] = assay: Antibacterial activity against methicillin-susceptible Staphylococcus aureus ATCC 29213 by broth microdilution method; assay type: functional
Staphylococcus aureus [9] = assay: Antibacterial activity against methicillin-resistant Staphylococcus aureus BAA-1747 by broth microdilution method; assay type: functional
[10] = Antibacterial activity against vancomycin-intermediate resistant Staphylococcus aureus Mu50 ATCC 700699 by broth microdilution method; assay type: functional, Staphylococcus aureus subsp. aureus Mu50
Staphylococcus aureus [11] = assay: Bactericidal activity against methicillin-susceptible Staphylococcus aureus ATCC 29213 by broth microdilution method; assay type: functional
Staphylococcus aureus [12] = assay: Bactericidal activity against methicillin-resistant Staphylococcus aureus BAA-1747 by broth microdilution method; assay type: functional
[13] = Bactericidal activity against vancomycin-intermediate resistant Staphylococcus aureus Mu50 ATCC 700699 by broth microdilution method; assay type: functional, Staphylococcus aureus subsp. aureus Mu50
Staphylococcus aureus [14] = assay: Ratio of MBC to MIC for methicillin-susceptible Staphylococcus aureus ATCC 29213; assay type: functional
Staphylococcus aureus [15] = assay: Ratio of MBC to MIC for methicillin-resistant Staphylococcus aureus BAA-1747; assay type: functional
Staphylococcus aureus [16] = assay: Ratio of MBC to MIC for vancomycin-intermediate resistant Staphylococcus aureus Mu50 ATCC 700699; assay type: functional
[17] = Glutathione reactivity assessed as formation of S-(propylthio)glutathione and ciprofloxacin at 1 uM after 2 hrs by ESI-positive MS method
Staphylococcus aureus [18] = assay: Induction of reactive oxygen species formation in Staphylococcus aureus at 25 uM after 0.5 hrs by DCFH-DA probe-based fluorometric assay relative to control; assay type: functional
Staphylococcus aureus [19] = assay: Antibacterial activity against Staphylococcus aureus after overnight incubation in presence of antioxidant vitamin E by double-diffusion assay; assay type: functional
Staphylococcus aureus [20] = assay: Antibacterial activity against Staphylococcus aureus after overnight incubation in presence of GSH by double-diffusion assay; assay type: functional

Compound | zone of inhibition at 10 µM (Enterococcus faecium) [mm] | zone of inhibition at 10 µM (Staphylococcus aureus [1]) [mm] | zone of inhibition at 10 µM (Klebsiella pneumoniae) [mm] | zone of inhibition at 10 µM (Acinetobacter baumannii [2]) [mm] | zone of inhibition at 10 µM (Pseudomonas aeruginosa) [mm] | zone of inhibition at 10 µM (Enterobacter cloacae) [mm] | zone of inhibition at 10 µM (Enterococcus faecalis) [mm] | zone of inhibition at 10 µM (Staphylococcus aureus [3]) [mm] | zone of inhibition at 10 µM [4] [mm] | zone of inhibition at 10 µM (Acinetobacter baumannii [5]) [mm] | zone of inhibition at 10 µM [6] [mm] | zone of inhibition at 10 µM [7] [mm] | further results
CCCCCCSN1CCN(c2cc3c(cc2F)c(=O)c(C(=O)O)cn3C2CC2)CC1 | 8 | 18 | 16 | 0 | 23 | 19 | 15 | 18 | 9 | 15 | 30 | 26 | –
O=C(O)c1cn(C2CC2)c2cc(N3CCN(Sc4ccccc4[N+](=O)[O-])CC3)c(F)cc2c1=O | 0 | 19 | 9 | 0 | 9 | 19 | 20 | 18 | 0 | 19 | 27 | 23 | –
O=C(O)c1cn(C2CC2)c2cc(N3CCN(Sc4ccccc4)CC3)c(F)cc2c1=O | 10 | 22 | 20 | 0 | 27 | 26 | 20 | 21 | 12 | 23 | 36 | 23 | –
CSN1CCN(c2cc3c(cc2F)c(=O)c(C(=O)O)cn3C2CC2)CC1 | 0 | 23 | 22 | 10 | 29 | 23 | 21 | 24 | 11 | 23 | 36 | 33 | –
CCCSN1CCN(c2cc3c(cc2F)c(=O)c(C(=O)O)cn3C2CC2)CC1 | 0 | 24 | 25 | 0 | 32 | 29 | 28 | 29 | 11 | 27 | 38 | 37 | MIC (Staphylococcus aureus [8]): 0.1 µM (≈ 0.0405 µg/mL); MIC (Staphylococcus aureus [9]): 1.56 µM (≈ 0.633 µg/mL); MIC [10]: 50 µM (≈ 20.3 µg/mL); MBC (Staphylococcus aureus [11]): 0.2 µM (≈ 0.0811 µg/mL); MBC (Staphylococcus aureus [12]): 1.56 µM (≈ 0.633 µg/mL); MBC [13]: 50 µM (≈ 20.3 µg/mL); Ratio (Staphylococcus aureus [14]): 2; Ratio (Staphylococcus aureus [15]): 1; Ratio (Staphylococcus aureus [16]): 1; Drug metabolism [17]: Metabolite detected; fold change (FC) (Staphylococcus aureus [18]): 2 - 3; Activity (Staphylococcus aureus [19]): Active; Activity (Staphylococcus aureus [20]): Active
CC(C)SN1CCN(c2cc3c(cc2F)c(=O)c(C(=O)O)cn3C2CC2)CC1 | 0 | 23 | 23 | 0 | 31 | 25 | 23 | 21 | 10 | 23 | 36 | 34 | –
CCC(C)SN1CCN(c2cc3c(cc2F)c(=O)c(C(=O)O)cn3C2CC2)CC1 (configuration not stated) | 8 | 23 | 20 | 0 | 27 | 23 | 22 | 24 | 11 | 22 | 35 | 32 | –
